{"source": "patent US20030162815A1", "about": "“Thiazolidinedione salt for treatment of diabetes mellitus” (priority 2003, published 2003)", "type_in_all_cases": "physicochemical", "key": {"[1]": {"test": "Flow properties of the Hydrobromide (Hausner Ratio, bulk density vs tapped bulk density)", "settings": "ratio between bulk density and tapped bulk density; product of Example 3", "protocol": "The ratio between the bulk density and the tapped bulk density (Hausner Ratio) of the Hydrobromide was determined using standard methods (“Pharmaceutics—The Science of Dosage Form Design”, editor M. Aulton, 1988, published by: Churchill Livingstone)."}, "[2]": {"test": "Solubility of the Hydrobromide in water (visual, confirmed by HPLC assay of a saturated solution)", "settings": "thermodynamic from solid, product of Example 3", "from_the_text": "The visual solubility was confirmed by an HPLC assay of a saturated solution."}, "[3]": {"test": "Solid state stability of the Hydrobromide (storage for 1 month, HPLC assay for final content and degradation products)", "settings": "product of Example 3", "method": "The solid state stability of the drug substance was determined by storing approximately 1.0 g of the material in a glass bottle at i) 40° C./75% Relative Humidity (RH), open exposure, for 1 month and b) at 50° C., closed, for 1 month. The material was assayed by HPLC for final content and degradation products in both cases."}}}
{"smiles": "Br.CN(CCOc1ccc(CC2SC(=O)NC2=O)cc1)c1ccccn1", "note": "(stereo not drawn) [Hydrobromide, 5-[4-[2-(N-methyl-N-(2-pyridyl)amino)ethoxy]benzyl]thiazolidine-2,4-dione hydrobromide]", "values": [{"measurement": "Hausner Ratio", "setting": "[1]", "value": 1.3}, {"measurement": "solubility", "setting": "[2]", "value": 6000, "unit": "µg/mL"}, {"measurement": "Solid state stability: HPLC assay", "setting": "[3]; 40° C./75% RH, open exposure", "value": 98, "unit": "% initial"}, {"measurement": "Solid state stability: degradation", "setting": "[3]; 40° C./75% RH, open exposure", "value": "No significant degradation observed"}, {"measurement": "Solid state stability: HPLC assay", "setting": "[3]; 50° C., closed", "value": 98, "unit": "% initial"}, {"measurement": "Solid state stability: degradation", "setting": "[3]; 50° C., closed", "value": "No significant degradation observed"}]}
